One may read the Emax as the size of the effect at its maximum, as opposed to the concentration needed.

The values that follow come from patent US8299048B2, “Hexahydrocyclopentyl[f]indazole sulfonamides and derivatives thereof as selective glucocorticoid receptor modulators” (Merck Sharp & Dohme Corp., priority 2008, dated 2012).

This assay concerns the target T1, human GR (Homo sapiens, UniProt P04150).
T1 sequence (P04150 1-777): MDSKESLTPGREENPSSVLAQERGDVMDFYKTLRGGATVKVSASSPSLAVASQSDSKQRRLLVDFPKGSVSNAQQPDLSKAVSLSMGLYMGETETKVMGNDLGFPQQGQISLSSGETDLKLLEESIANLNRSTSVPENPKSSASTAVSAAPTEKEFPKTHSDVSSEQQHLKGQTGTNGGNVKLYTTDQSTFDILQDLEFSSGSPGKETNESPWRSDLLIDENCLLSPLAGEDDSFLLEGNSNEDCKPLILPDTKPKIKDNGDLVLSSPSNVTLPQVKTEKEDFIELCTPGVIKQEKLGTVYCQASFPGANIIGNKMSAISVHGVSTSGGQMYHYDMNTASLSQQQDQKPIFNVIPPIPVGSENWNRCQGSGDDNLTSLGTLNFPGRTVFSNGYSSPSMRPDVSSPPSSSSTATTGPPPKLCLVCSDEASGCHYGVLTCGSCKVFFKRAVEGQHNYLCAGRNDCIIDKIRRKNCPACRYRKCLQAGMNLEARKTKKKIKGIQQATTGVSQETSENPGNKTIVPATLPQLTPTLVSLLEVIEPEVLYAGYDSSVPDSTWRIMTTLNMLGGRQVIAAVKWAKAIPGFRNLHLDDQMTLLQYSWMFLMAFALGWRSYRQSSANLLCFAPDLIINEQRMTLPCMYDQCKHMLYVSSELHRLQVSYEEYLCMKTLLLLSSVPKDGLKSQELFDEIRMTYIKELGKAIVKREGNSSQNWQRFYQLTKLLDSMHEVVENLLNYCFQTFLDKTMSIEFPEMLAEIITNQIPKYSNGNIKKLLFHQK
Briefly: Trans-Activation Modulation of Glucocorticoid Receptor (GRAMMER), MMTV-LUC reporter, agonist mode. The class given is cell-based. Details: endogenous in cells. Conditions: for Emax: A549, A549 cells, maximum activity, read-out: Transactivation A549 Cells GRAMMER Emax; for EC50: A549 cells, inflection point, read-out: Transactivation A549 Cells GRAMMER IP. An outline of the steps:
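Readout is luciferase from a modified MMTV LTR promoter after 24 h compound exposure alongside 10 nM dexamethasone (100% activity reference), DMSO ≤1%.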

Consider `Cc1ccc(S(=O)(=O)N(CC#N)C[C@H]2CCC3=Cc4c(cnn4-c4ccc(F)cc4)C[C@@]32C)s1` [Example 31, N-(cyanomethyl)-N-{[(4αR,5S)-1-(4-fluorophenyl}-4α-methyl-1,4,4α,5,6,7-hexahydrocyclopenta[f]indazol-5-yl]methyl}-5-methylthiophene-2-sulfonamide], for which the Emax stood at 20.7% and the EC50 was determined as 833 nM.

Take `Cn1cc(S(=O)(=O)N(CC#N)C[C@H]2CCC3=Cc4c(cnn4-c4ccc(F)cc4)C[C@@]32C)c(C(F)(F)F)n1` [Example 32, N-(cyanomethyl)-N-{[(4αR,5S)-1-(4-fluorophenyl}-4α-methyl-1,4,4α,5,6,7-hexahydrocyclopenta[f]indazol-5-yl]methyl}-1-methyl-3-(trifluoromethyl)-1H-pyrazole-4-sulfonamide]: the Emax turned out to be 29.4% and the EC50 was 868 nM.

Regarding `Cc1cc(S(=O)(=O)N(CC#N)C[C@H]2CCC3=Cc4c(cnn4-c4ccc(F)cc4)C[C@@]32C)c(C)o1` [Example 33, (4αR,5S)-5-({(cyanomethyl)[(2,5-dimethyl-3-furyl)sulfonyl]amino}methyl)-1-(4-fluorophenyl)-4α-methyl-1,4,4α,5,6,7-hexahydrocyclopenta[f]indazol-2-ium], the Emax came out at 15.2% and the EC50 stood at 1050 nM.

`COC(=O)c1sccc1S(=O)(=O)N(CC#N)C[C@H]1CCC2=Cc3c(cnn3-c3ccc(F)cc3)C[C@@]21C` [Example 34, methyl 3-[((cyanomethyl){[(4αR,5S)-1-(4-fluorophenyl)-4α-methyl-1,4,4α,5,6,7-hexahydrocyclopenta[f]indazol-5-yl]methyl}amino)sulfonyl]thiophene-2-carboxylate]: the Emax stood at 37% and the EC50 amounted to 748 nM.

On to `Cn1nc(C(F)(F)F)cc1-c1ccc(S(=O)(=O)N(CC#N)C[C@H]2CCC3=Cc4c(cnn4-c4ccc(F)cc4)C[C@@]32C)s1` [Example 35], for which the Emax was 4.9% and the EC50 is 443 nM.

For the molecule `C[C@]12Cc3cnn(-c4ccc(F)cc4)c3C=C1CC[C@@H]2CN(CC#N)S(=O)(=O)c1cccc(C#N)c1` [Example 36, 3-cyano-N-(cyanomethyl)-N-{[(4αR,5S)-1-(4-fluorophenyl)-4α-methyl-1,4,4α,5,6,7-hexahydrocyclopenta[f]indazol-5-yl]methyl}benzenesulfonamide], the maximum response (Emax) came out at 22.7% and the EC50 worked out at 745 nM.

With `Cn1cnc(S(=O)(=O)N(CC#N)C[C@H]2CCC3=Cc4c(cnn4-c4ccc(F)cc4)C[C@@]32C)c1` [Example 37, N-(cyanomethyl)-N-{[(4αR,5S)-1-(4-fluorophenyl}-4α-methyl-1,4,4α,5,6,7-hexahydrocyclopenta[f]indazol-5-yl]methyl}-1-methyl-1H-imidazole-4-sulfonamide], the maximum response (Emax) was found to be 2.8% and the EC50 stood at 2190 nM.

Regarding `C[C@]12Cc3cnn(-c4ccc(F)cc4)c3C=C1CC[C@@H]2CN(CC#N)S(=O)(=O)c1ccc(Oc2cccc(Cl)c2C#N)cc1` [Example 38, 4-(3-chloro-2-cyanophenoxy)-N-(cyanomethyl)-N-{[(4αR,5S)-1-(4-fluorophenyl)-4α-methyl-1,4,4α,5,6,7-hexahydrocyclopenta[f]indazol-5-yl]methyl}benzenesulfonamide], the Emax turned out to be 1.3% and the EC50 was 5000 nM.

For the molecule `CN1CCOc2cc(S(=O)(=O)N(CC#N)C[C@H]3CCC4=Cc5c(cnn5-c5ccc(F)cc5)C[C@@]43C)ccc21` [Example 39, N-(cyanomethyl)-N-{[(4αR,5S)-1-(4-fluorophenyl)-4α-methyl-1,4,4α,5,6,7-hexahydrocyclopenta[f]indazol-5-yl]methyl}-4-methyl-3,4-dihydro-2H-1,4-benzoxazine-7-sulfonamide], the Emax came out at 1.7% and the EC50 amounted to 5000 nM.

With `C[C@]12Cc3cnn(-c4ccc(F)cc4)c3C=C1CC[C@@H]2CN(CC#N)S(=O)(=O)c1cccc2ccccc12` [Example 40, N-(cyanomethyl)-N-{[(4αR,5S)-1-(4-fluorophenyl)-4α-methyl-1,4,4α,5,6,7-hexahydrocyclopenta[f]indazol-5-yl]methyl}naphthalene-1-sulfonamide], the Emax was determined as 3.2% and the EC50 was 82.8 nM.

Consider `C[C@]12Cc3cnn(-c4ccc(F)cc4)c3C=C1CC[C@@H]2CN(CC#N)S(=O)(=O)c1cc(OCC(F)(F)F)ccc1OCC(F)(F)F` [Example 41, N-(cyanomethyl)-N-{[(4αR,5S)-1-(4-fluorophenyl)-4α-methyl-1,4,4α,5,6,7-hexahydrocyclopenta[f]indazol-5-yl]methyl}-2,5-bis(2,2,2-trifluoroethoxy)benzenesulfonamide], for which the Emax is 60.3% and the EC50 was 124 nM.

With `C[C@]12Cc3cnn(-c4ccc(F)cc4)c3C=C1CC[C@@H]2CN(CC#N)S(=O)(=O)c1ccc(-c2ccccc2)cc1` [Example 42, N-(cyanomethyl)-N-{[(4αR,5S)-1-(4-fluorophenyl)-4α-methyl-1,4,4α,5,6,7-hexahydrocyclopenta[f]indazol-5-yl]methyl}biphenyl-4-sulfonamide], the Emax was determined as 4.2% and the EC50 amounted to 228 nM.

For the molecule `C[C@]12Cc3cnn(-c4ccc(F)cc4)c3C=C1CC[C@@H]2CN(CC#N)S(=O)(=O)c1ccccc1F` [Example 43, N-(cyanomethyl)-2-fluoro-N-{[(4αR,5S)-1-(4-fluorophenyl)-4α-methyl-1,4,4α,5,6,7-hexahydrocyclopenta[f]indazol-5-yl]methyl}benzenesulfonamide], the Emax turned out to be 36% and the EC50 was found to be 470 nM.

For the molecule `C[C@]12Cc3cnn(-c4ccc(F)cc4)c3C=C1CC[C@@H]2CN(CC#N)S(=O)(=O)c1cc(F)cc(F)c1` [Example 44, N-(cyanomethyl)-3,5-difluoro-N-{[(4αR,5S)-1-(4-fluorophenyl)-4α-methyl-1,4,4α,5,6,7-hexahydrocyclopenta[f]indazol-5-yl]methyl}benzenesulfonamide], the Emax came out at 44.8% and the EC50 was 622 nM.

With `C[C@]12Cc3cnn(-c4ccc(F)cc4)c3C=C1CC[C@@H]2CN(CC#N)S(=O)(=O)c1ccc(Oc2ccccn2)cc1` [Example 45, N-(cyanomethyl)-N-{[(4αR,5S)-1-(4-fluorophenyl)-4α-methyl-1,4,4α,5,6,7-hexahydrocyclopenta[f]indazol-5-yl]methyl}-4-(pyridin-2-yloxy)benzenesulfonamide], the Emax was found to be 11.4% and the EC50 was found to be 2890 nM.

Take `C[C@]12Cc3cnn(-c4ccc(F)cc4)c3C=C1CC[C@@H]2CN(CC#N)S(=O)(=O)c1ccc(F)cc1` [Example 46, N-(cyanomethyl)-4-fluoro-N-{[(4αR,5S)-1-(4-fluorophenyl)-4α-methyl-1,4,4α,5,6,7-hexahydrocyclopenta[f]indazol-5-yl]methyl}benzenesulfonamide]: the Emax stood at 83.3% and the EC50 worked out at 373 nM.

For the molecule `C[C@]12Cc3cnn(-c4ccc(F)cc4)c3C=C1CC[C@@H]2CN(CC#N)S(=O)(=O)c1cc(F)c(F)cc1F` [Example 47, N-(cyanomethyl)-2,4,5-trifluoro-N-{[(4αR,5S)-1-(4-fluorophenyl)-4α-methyl-1,4,4α,5,6,7-hexahydrocyclopenta[f]indazol-5-yl]methyl}benzenesulfonamide], the Emax worked out at 58.3% and the EC50 is 635 nM.

Take `C[C@]12Cc3cnn(-c4ccc(F)cc4)c3C=C1CC[C@@H]2CN(CC#N)S(=O)(=O)Cc1ccccc1` [Example 48, N-(cyanomethyl)-N-{[(4αR,5S)-1-(4-fluorophenyl)-4α-methyl-1,4,4α,5,6,7-hexahydrocyclopenta[f]indazol-5-yl]methyl}-1-phenylmethanesulfonamide]: the Emax is 8.8% and the EC50 came to 995 nM.

As for `Cc1ccccc1S(=O)(=O)N(CC#N)C[C@H]1CCC2=Cc3c(cnn3-c3ccc(F)cc3)C[C@@]21C` [Example 49, N-(cyanomethyl)-N-{[(4αR,5S)-1-(4-fluorophenyl)-4α-methyl-1,4,4α,5,6,7-hexahydrocyclopenta[f]indazol-5-yl]methyl}-2-methylbenzenesulfonamide], the Emax worked out at 14.1% and the EC50 amounted to 955 nM.

On to `C[C@]12Cc3cnn(-c4ccc(F)cc4)c3C=C1CC[C@@H]2CN(CC#N)S(=O)(=O)c1ccccc1Cl` [Example 50, 2-chloro-N-(cyanomethyl)-N-{[(4αR,5S)-1-(4-fluorophenyl)-4α-methyl-1,4,4α,5,6,7-hexahydrocyclopenta[f]indazol-5-yl]methyl}benzenesulfonamide], for which the Emax was 15.1% and the EC50 was 949 nM.

For `C[C@]12Cc3cnn(-c4ccc(F)cc4)c3C=C1CC[C@@H]2CN(CC#N)S(=O)(=O)c1ccc(F)cc1F` [Example 51, N-(cyanomethyl)-2,4-difluoro-N-{[(4αR,5S)-1-(4-fluorophenyl)-4α-methyl-1,4,4α,5,6,7-hexahydrocyclopenta[f]indazol-5-yl]methyl}benzenesulfonamide], the maximal response (Emax) is 83.3% and the EC50 was found to be 433 nM.
